The subject of test [1] is extracellular acetylcholine in the cerebral cortex. The experiment in a line: Amount of extracellular acetylcholine in mouse brain by in vivo microdialysis (Test Example 1). Set-up: species or system ddY mouse. The settings on record: oral 30 mg/kg, FIG. 1. The method, then:
The compound A, B, and C were administered orally to the mouse and the effect on the amount of extracellular acetylcholine in the brain was examined. The brain microdyalysis method using the mouse is proposed as a test for evaluating cognitive dysfunction including Alzheimer type dementia. The brain microdyalysis method is a system that can monitor the variation of extracellular neurotransmitter release in real time at the local parts in the brain while the test animals are moving freely without anesthesia.
7-weeks-old male ddY mice were purchased from Japan SLC, Inc. and subjected to the experiment after one week habituation period. The animals were reared in the rearing chamber provided with air conditioner (under the condition that the temperature was 22° C.±1° C., the relative humidity was 50±10%, and the irradiation time was 12 hours (8:00 to 20:00)). The feeding method was that the commercially available MF powdery feed (manufactured by Oriental Yeast Co., ltd.) and tap water were taken freely.
In the two days before the start of the experiment, the fixing operation of the guide cannula for inserting the dialysis probe in the mouse was conducted in advance. Under the deep anesthetized conditions, the guide cannula (depth 4 mm) (manufactured by Eicom Corp.,) was inserted in and fixed on cerebral cortex prefrontal area (which was 1.9 mm forward and 0.5 mm right side from the bregma and to which the depth from cranial surface was 0.8 mm). Buprenorphine (0.01 mg/kg manufactured by Sigma-Aldrich Japan) was administered to the mouse as analgesic after the operation. Each mouse was reared in the separate cage after the operation.
In the step of measuring extracellular acetylcholine in the brain, the dialysis probe (membrane length 3 mm) (manufactured by Eicom Corp.,) was inserted in the guide cannula and the Ringer's solution in the Japanese Pharmacopeia (containing NaCl (147.2 mM), KCl (4.0 mM), and CaCl2 (2.2 mM); manufactured by FUSO CHEMICAL CO., LTD.) was perfused at the flow velocity of 1 μL/min. The sample obtained by the perfusion was collected every 20 minutes and was immediately continuously automatically injected in the high-speed liquid chromatography/electrochemical detector (HPLC/ECD) system (manufactured by Eicom Corp., HTEC-500) together with the internal standard material (isopropylhomocholine, 250 fmol) and acetylcholine was measured under the condition described below.
• Column: Eicompak AC-GEL (2.0 mm; i.d.×150 mm) (manufactured by Eicom Corp.,) • Precolumn: PC-05-03 (3.0 mm; i.d.×40 mm) (manufactured by Eicom Corp.,) • Enzyme-immobilized column: AC-Enzympak (3.0 mm; i.d.) (manufactured by Eicom Corp.,) • Mobile Phase: 50 mM potassium hydrogen carbonate buffer containing 400 mg/L sodium decansulfonic acid and 134 μM EDTA (pH 8.3) • Flow Velocity: 150 μl/min. • Temperature of column: 33° C. • Applied voltage of ECD: +450 mV • Reference electrode: Ag/AgCl electrode • Work electrode: platinum electrode
The compound A prepared according to the procedure described in Manufacturing Example 1 was dissolved in 2.5% DMSO solution in advance to prepare for the test. […] The amount of the extracellular acetylcholine released was measured by the procedure described above in (a) Used animal and Rearing Procedure in real time for 120 minutes after the administration. The mouse in Vehicle group took only 2.5% DMSO solution orally in the same way and the amount of the extracellular acetylcholine was measured. […]

The subject of test [2] is model mouse with the inflammation in brain induced by administering LPS. The test can be described thus: Forced swimming test in mouse with inflammation in brain induced by LPS (Test Example 5). The class given is in vivo, C57/BL6J mice. The note with it: test 24 hours after LPS, FIG. 5. The source says:
In regard to the depressive symptoms induced by taking LPS (Lipopolysaccharide), the effect of inhibiting the symptom by oral administration of the compound A was examined. The inflammation in the brain is thought to be one of the main onset factors of depression. It is known that LPS causes the inflammation in the brain by inducing the decrease in brain-derived neurotrophic factor and the variation of the density of dendrite of neuron, activating microglia and the like and induce depressive symptoms. […]
In 24 hours after the intraperitoneal administration of LPS, forced swimming test was conducted. The depressive symptoms were evaluated by measurement of the immobility time.
Water (25±1° C.) was put into the acryl resin cylinder (diameter 19 cm, height 25 cm) up to a height of 13 cm. The subject mouse was forced to swim for 6 minutes one by one and the state was video-recorded. […] “The state that the mouse floated on the water surface without moving its limbs and the like” was regarded as immobility and the Immobility Time (sec.) was measured during the test of 6 minutes.
From the results obtained, the mean (Mean) and the standard error (SEM) were calculated. The significant difference was assessed between the control group and Vehicle group and between the compound A administration group and the […] by using Turkey-Kramer's test. […]

For `O=C1CC[C@H](Cc2cc(O)cc(O)c2)O1` [compound A, (R)-5-(3,5-dihydroxyphenyl)-γ-valerolactone], the “amount of extracellular acetylcholine in the cerebral cortex versus Vehicle group” value in test [1] (40 and 60 minutes after the administration) is “significant increase”. In addition, the “amount of extracellular acetylcholine in the cerebral cortex (ratio to basic released amount)” value in test [1] (measured for 120 minutes after administration, compared with before administration) was “increased”. In test [2] (oral 10 mg/kg and 30 mg/kg groups, LPS 0.5 mg/kg i.p. 30 minutes later), the “increase of the immobility time in forced swimming test” value is recorded as “reduced”. In addition, the “immobility time in forced swimming test” value in test [2] (oral 30 mg/kg, LPS 0.5 mg/kg i.p.) is listed as “on the same level as that in the control group”.

Source of the values: patent US20250120942A1, “BRAIN FUNCTION IMPROVING AGENT” (OSAKA UNIVERSITY, priority 2021, published 2025).
